Measured values taken from US20250262268A1, “Methods and Compositions for Inhibiting Viral Infection” (New York Genome Center, Inc., priority 2020, published 2025).
Entries after “also recorded” stand apart in the source; their conditions may differ.

Experiments:
[1] = system: SARS-CoV-2; assay: qPCR of SARS-CoV-2 viral load in non-targeting or PIK3C3 CRISPR-perturbed A549-ACE2 cells treated with PIK3C3 inhibitors; assay type: cell-based; details: 10 μM, 2 hours pretreatment, MOI 0.1, 36 hpi
[2] = system: primary human CD8+ T-cells; assay: T cell activation, intracellular cytokine staining after CD3/CD28 stimulation; assay type: cell-based; details: 10 μM, 1 hour pre-incubation
[3] = system: SARS-CoV-2; assay: qRT-PCR of SARS-CoV-2 viral load in inhibitor-treated A549-ACE2 cells; assay type: cell-based, SARS-CoV-2 isolate USA-WA1/2020; details: 10 μM inhibitor, MOI 0.1, 36 hpi

## Nc1ncc(-c2ccnc(Nc3ccncc3)n2)c(CC2CC2)n1 [PIK-III]
[1]
  specificity for PIK3C3: viral inhibition in PIK3C3 CRISPR-perturbed versus non-targeting cells: specific

## C[C@@H]1COCCN1c1cc(=O)n2c(n1)N(Cc1cncc(Cl)c1)[C@H](C(F)(F)F)CC2 [SAR405]
[1]
  specificity for PIK3C3: viral inhibition in PIK3C3 CRISPR-perturbed versus non-targeting cells: greater viral inhibition in PIK3C3 CRISPR-perturbed cells; also recorded: may have some off-target effects

## Cc1cc(Nc2cc(Cl)nc(Oc3ccc([N+](=O)[O-])cc3)n2)n[nH]1 [autophinib, Autophinib]
[1]
  specificity for PIK3C3: viral inhibition in PIK3C3 CRISPR-perturbed versus non-targeting cells: specific

## CC[C@H](Nc1ncnc2[nH]cnc12)c1nc2cccc(F)c2c(=O)n1-c1ccccc1 [idelalisib, Idelalisib]
[2]
  release of interferon-gamma (IFNγ) by CD8+ T-cells: significant reduction
  release of tumor necrosis factor (TNF) by CD8+ T-cells: significant reduction

## CC/C(=C(\c1ccccc1)c1ccc(OCCN(C)C)cc1)c1ccccc1 [tamoxifen, Tamoxifen]
[3]
  reduction in SARS-CoV-2 viral load (in words): substantial reduction
[2]
  effect on T-cell activation and cytokine secretion: no effect
